Results published in ChEMBL document CHEMBL6103594, “Synthesis and evolution of 16-membered macrolide carrimycin derivatives as a novel class of anti-HCoV-OC43 agents targeting viral FSE RNA” (Eur J Med Chem, 2025).
pEC50: −log10 of the molar value.

Columns and labels:
[1] = Selectivity index, ratio of CC50 for cytotoxicity against human NCI-H460 cells to EC50 for antiviral activity against HCoV-OC43 infected in human NCI-H460 cells; format: toxicity, cell-based, NCI-460; conditions: read-out: Ratio CC50/EC50
Human coronavirus OC43 = experiment: Antiviral activity against HCoV-OC43 infected in human NCI-H460 cells incubated for 72 hrs by CCK8 assay; format: functional, organism-based; conditions: Betacoronavirus 1, NCI-H460, 72 h
[2] = Cytotoxicity against human NCI-H460 cells incubated for 72 hrs by CCK8 assay; format: toxicity, cell-based; conditions: read-out: EC50

## CCCCC(=O)O[C@H]1[C@H](O[C@H]2[C@@H](CC=O)C[C@@H](C)[C@@H](O[C@H]3CC[C@H](N(C)C)[C@@H](C)O3)/C=C/C=C/C[C@@H](C)OC(=O)C[C@@H](O)[C@@H]2OC)O[C@H](C)[C@@H](O[C@H]2C[C@@](C)(O)[C@@H](O)[C@H](C)O2)[C@@H]1N(C)C
[1]
  selectivity ratio: 6.2
Human coronavirus OC43
  pEC50: 5.27
[2]
  CC50 at 72 h: 33.5 µM

## CC(C)C(=O)OC[C@H]1O[C@@H](n2ccc(NO)nc2=O)[C@H](O)[C@@H]1O [MOLNUPIRAVIR]
[1]
  selectivity ratio: 196
Human coronavirus OC43
  pEC50: 6.80

## CCCC(=O)O[C@H]1[C@H](C)O[C@@H](O[C@H]2[C@H](N(C)C)[C@@H](O)[C@H](O[C@H]3[C@@H](CC=O)C[C@@H](C)[C@@H](O[C@H]4CC[C@H](N(C)C)[C@@H](C)O4)/C=C/C=C/C[C@@H](C)OC(=O)C[C@@H](O)[C@@H]3OC)O[C@@H]2C)C[C@@]1(C)O
[1]
  selectivity ratio: 6.4
Human coronavirus OC43
  pEC50: 5.29
[2]
  CC50 at 72 h: 33.1 µM

## CO[C@@H]1[C@@H](O[C@@H]2O[C@H](C)[C@@H](O[C@H]3C[C@@](C)(O)[C@@H](O)[C@H](C)O3)[C@H](N(C)C)[C@H]2OC(=O)C2CCCCC2)[C@@H](CC=O)C[C@@H](C)[C@@H](O[C@H]2CC[C@H](N(C)C)[C@@H](C)O2)/C=C/C=C/C[C@@H](C)OC(=O)C[C@H]1O
[1]
  selectivity ratio: < 1.2
Human coronavirus OC43
  pEC50: < 4.90
[2]
  CC50 at 72 h: 15 µM

## CO[C@@H]1[C@@H](O[C@@H]2O[C@H](C)[C@@H](O[C@H]3C[C@@](C)(O)[C@@H](OC(=O)CC(C)C)[C@H](C)O3)[C@H](N(C)C)[C@H]2OC(C)=O)[C@@H](CC=O)C[C@@H](C)[C@@H](O[C@H]2CC[C@H](N(C)C)[C@@H](C)O2)/C=C/C=C/C[C@@H](C)OC(=O)C[C@H]1O
[1]
  selectivity ratio: 3.3
Human coronavirus OC43
  pEC50: 5.10
[2]
  CC50 at 72 h: 25.7 µM

## CO[C@@H]1[C@@H](O[C@@H]2O[C@H](C)[C@@H](O[C@H]3C[C@@](C)(O)[C@@H](OC(=O)Cc4ccc(Cl)cc4)[C@H](C)O3)[C@H](N(C)C)[C@H]2OC(C)=O)[C@@H](CC=O)C[C@@H](C)[C@@H](O[C@H]2CC[C@H](N(C)C)[C@@H](C)O2)/C=C/C=C/C[C@@H](C)OC(=O)C[C@H]1O
[1]
  selectivity ratio: < 1.2
Human coronavirus OC43
  pEC50: < 5.20
[2]
  CC50 at 72 h: 7.4 µM

## CO[C@@H]1[C@@H](O[C@@H]2O[C@H](C)[C@@H](O[C@H]3C[C@@](C)(O)[C@@H](O)[C@H](C)O3)[C@H](N(C)C)[C@H]2OC(=O)CC(C)(C)C)[C@@H](CC=O)C[C@@H](C)[C@@H](O[C@H]2CC[C@H](N(C)C)[C@@H](C)O2)/C=C/C=C/C[C@@H](C)OC(=O)C[C@H]1O
[1]
  selectivity ratio: 2.7
Human coronavirus OC43
  pEC50: 5.31
[2]
  CC50 at 72 h: 13.4 µM

## CO[C@@H]1[C@@H](O[C@@H]2O[C@H](C)[C@@H](O[C@H]3C[C@@](C)(O)[C@@H](O)[C@H](C)O3)[C@H](N(C)C)[C@H]2OC(C)=O)[C@@H](CC=O)C[C@@H](C)[C@@H](O[C@H]2CC[C@H](N(C)C)[C@@H](C)O2)/C=C/C=C/C[C@@H](C)OC(=O)C[C@H]1O
[1]
  selectivity ratio: > 6.71
Human coronavirus OC43
  pEC50: 4.53
[2]
  CC50 at 72 h: > 200 µM

## CO[C@@H]1[C@@H](O[C@@H]2O[C@H](C)[C@@H](O[C@H]3C[C@@](C)(O)[C@@H](O)[C@H](C)O3)[C@H](N(C)C)[C@H]2OC(=O)C(C)(C)C)[C@@H](CC=O)C[C@@H](C)[C@@H](O[C@H]2CC[C@H](N(C)C)[C@@H](C)O2)/C=C/C=C/C[C@@H](C)OC(=O)C[C@H]1O
[1]
  selectivity ratio: 3.6
Human coronavirus OC43
  pEC50: 5.35
[2]
  CC50 at 72 h: 16.2 µM

## CO[C@@H]1[C@@H](O[C@@H]2O[C@H](C)[C@@H](O[C@H]3C[C@@](C)(O)[C@@H](O)[C@H](C)O3)[C@H](N(C)C)[C@H]2OC(=O)C2CCC2)[C@@H](CC=O)C[C@@H](C)[C@@H](O[C@H]2CC[C@H](N(C)C)[C@@H](C)O2)/C=C/C=C/C[C@@H](C)OC(=O)C[C@H]1O
[1]
  selectivity ratio: < 2.2
Human coronavirus OC43
  pEC50: < 5.20
[2]
  CC50 at 72 h: 13.7 µM

## CO[C@@H]1[C@@H](O[C@@H]2O[C@H](C)[C@@H](O[C@H]3C[C@@](C)(O)[C@@H](O)[C@H](C)O3)[C@H](N(C)C)[C@H]2OC(=O)c2ccc(C(F)(F)F)cc2)[C@@H](CC=O)C[C@@H](C)[C@@H](O[C@H]2CC[C@H](N(C)C)[C@@H](C)O2)/C=C/C=C/C[C@@H](C)OC(=O)C[C@H]1O
[1]
  selectivity ratio: 1.1
Human coronavirus OC43
  pEC50: 5.22
[2]
  CC50 at 72 h: 6.74 µM

## CO[C@@H]1[C@@H](O[C@@H]2O[C@H](C)[C@@H](O[C@H]3C[C@@](C)(O)[C@@H](O)[C@H](C)O3)[C@H](N(C)C)[C@H]2OC(=O)CC(C)C)[C@@H](CC=O)C[C@@H](C)[C@@H](O[C@H]2CC[C@H](N(C)C)[C@@H](C)O2)/C=C/C=C/C[C@@H](C)OC(=O)C[C@H]1O
[1]
  selectivity ratio: 3.5
Human coronavirus OC43
  pEC50: 5.32
[2]
  CC50 at 72 h: 17.1 µM

## COc1ccc(CC(=O)O[C@H]2[C@H](C)O[C@@H](O[C@H]3[C@H](N(C)C)[C@@H](O)[C@H](O[C@H]4[C@@H](CC=O)C[C@@H](C)[C@@H](O[C@H]5CC[C@H](N(C)C)[C@@H](C)O5)/C=C/C=C/C[C@@H](C)OC(=O)C[C@@H](O)[C@@H]4OC)O[C@@H]3C)C[C@@]2(C)O)cc1
[1]
  selectivity ratio: < 2.2
Human coronavirus OC43
  pEC50: < 4.90
[2]
  CC50 at 72 h: 27 µM

## CO[C@@H]1[C@@H](O[C@@H]2O[C@H](C)[C@@H](O[C@H]3C[C@@](C)(O)[C@@H](O)[C@H](C)O3)[C@H](N(C)C)[C@H]2OC(=O)/C=C/c2ccccc2)[C@@H](CC=O)C[C@@H](C)[C@@H](O[C@H]2CC[C@H](N(C)C)[C@@H](C)O2)/C=C/C=C/C[C@@H](C)OC(=O)C[C@H]1O
[1]
  selectivity ratio: 3.8
Human coronavirus OC43
  pEC50: 5.83
[2]
  CC50 at 72 h: 5.57 µM

## C=CC(=O)O[C@H]1[C@H](C)O[C@@H](O[C@H]2[C@H](N(C)C)[C@@H](OC(C)=O)[C@H](O[C@H]3[C@@H](CC=O)C[C@@H](C)[C@@H](O[C@H]4CC[C@H](N(C)C)[C@@H](C)O4)/C=C/C=C/C[C@@H](C)OC(=O)C[C@@H](O)[C@@H]3OC)O[C@@H]2C)C[C@@]1(C)O
[1]
  selectivity ratio: 4
Human coronavirus OC43
  pEC50: 5.32
[2]
  CC50 at 72 h: 18.9 µM

## COc1ccc(CC(=O)O[C@H]2[C@H](C)O[C@@H](O[C@H]3[C@H](N(C)C)[C@@H](OC(C)=O)[C@H](O[C@H]4[C@@H](CC=O)C[C@@H](C)[C@@H](O[C@H]5CC[C@H](N(C)C)[C@@H](C)O5)/C=C/C=C/C[C@@H](C)OC(=O)C[C@@H](O)[C@@H]4OC)O[C@@H]3C)C[C@@]2(C)O)cc1
[1]
  selectivity ratio: < 2.1
Human coronavirus OC43
  pEC50: < 5.20
[2]
  CC50 at 72 h: 13.1 µM

## CCC(=O)O[C@H]1[C@H](O[C@H]2[C@@H](CC=O)C[C@@H](C)[C@@H](O[C@H]3CC[C@H](N(C)C)[C@@H](C)O3)/C=C/C=C/C[C@@H](C)OC(=O)C[C@@H](O)[C@@H]2OC)O[C@H](C)[C@@H](O[C@H]2C[C@@](C)(O)[C@@H](O)[C@H](C)O2)[C@@H]1N(C)C
[1]
  selectivity ratio: > 6.9
Human coronavirus OC43
  pEC50: 4.63
[2]
  CC50 at 72 h: > 161 µM

## CCCC(=O)O[C@H]1[C@H](O[C@H]2[C@@H](CC=O)C[C@@H](C)[C@@H](O[C@H]3CC[C@H](N(C)C)[C@@H](C)O3)/C=C/C=C/C[C@@H](C)OC(=O)C[C@@H](O)[C@@H]2OC)O[C@H](C)[C@@H](O[C@H]2C[C@@](C)(O)[C@@H](O)[C@H](C)O2)[C@@H]1N(C)C
[1]
  selectivity ratio: 7.8
Human coronavirus OC43
  pEC50: 5.06
[2]
  CC50 at 72 h: 68 µM

## CCCCCC(=O)O[C@H]1[C@H](O[C@H]2[C@@H](CC=O)C[C@@H](C)[C@@H](O[C@H]3CC[C@H](N(C)C)[C@@H](C)O3)/C=C/C=C/C[C@@H](C)OC(=O)C[C@@H](O)[C@@H]2OC)O[C@H](C)[C@@H](O[C@H]2C[C@@](C)(O)[C@@H](O)[C@H](C)O2)[C@@H]1N(C)C
[1]
  selectivity ratio: 3.6
Human coronavirus OC43
  pEC50: 5.30
[2]
  CC50 at 72 h: 18.2 µM

## CO[C@@H]1[C@@H](O[C@@H]2O[C@H](C)[C@@H](O[C@H]3C[C@@](C)(O)[C@@H](O)[C@H](C)O3)[C@H](N(C)C)[C@H]2OC(=O)c2ccc(F)c(C(F)(F)F)c2)[C@@H](CC=O)C[C@@H](C)[C@@H](O[C@H]2CC[C@H](N(C)C)[C@@H](C)O2)/C=C/C=C/C[C@@H](C)OC(=O)C[C@H]1O
[1]
  selectivity ratio: 3.1
Human coronavirus OC43
  pEC50: 5.75
[2]
  CC50 at 72 h: 5.52 µM

## CO[C@@H]1[C@@H](O[C@@H]2O[C@H](C)[C@@H](O[C@H]3C[C@@](C)(O)[C@@H](O)[C@H](C)O3)[C@H](N(C)C)[C@H]2OC(=O)C2CCCC2)[C@@H](CC=O)C[C@@H](C)[C@@H](O[C@H]2CC[C@H](N(C)C)[C@@H](C)O2)/C=C/C=C/C[C@@H](C)OC(=O)C[C@H]1O
[1]
  selectivity ratio: < 1.6
Human coronavirus OC43
  pEC50: < 4.90
[2]
  CC50 at 72 h: 20 µM

## CO[C@@H]1[C@@H](O[C@@H]2O[C@H](C)[C@@H](O[C@H]3C[C@@](C)(O)[C@@H](O)[C@H](C)O3)[C@H](N(C)C)[C@H]2OC(=O)CCCc2ccccc2)[C@@H](CC=O)C[C@@H](C)[C@@H](O[C@H]2CC[C@H](N(C)C)[C@@H](C)O2)/C=C/C=C/C[C@@H](C)OC(=O)C[C@H]1O
[1]
  selectivity ratio: 3.3
Human coronavirus OC43
  pEC50: 4.93
[2]
  CC50 at 72 h: 39.3 µM

## CO[C@@H]1[C@@H](O[C@@H]2O[C@H](C)[C@@H](O[C@H]3C[C@@](C)(O)[C@@H](O)[C@H](C)O3)[C@H](N(C)C)[C@H]2OC(=O)c2ccc(F)cc2C(F)(F)F)[C@@H](CC=O)C[C@@H](C)[C@@H](O[C@H]2CC[C@H](N(C)C)[C@@H](C)O2)/C=C/C=C/C[C@@H](C)OC(=O)C[C@H]1O
[1]
  selectivity ratio: 3
Human coronavirus OC43
  pEC50: 5.92
[2]
  CC50 at 72 h: 3.54 µM

## C=CC(=O)O[C@H]1[C@H](C)O[C@@H](O[C@H]2[C@H](N(C)C)[C@@H](O)[C@H](O[C@H]3[C@@H](CC=O)C[C@@H](C)[C@@H](O[C@H]4CC[C@H](N(C)C)[C@@H](C)O4)/C=C/C=C/C[C@@H](C)OC(=O)C[C@@H](O)[C@@H]3OC)O[C@@H]2C)C[C@@]1(C)O
[1]
  selectivity ratio: 3.2
Human coronavirus OC43
  pEC50: 4.92
[2]
  CC50 at 72 h: 38.4 µM
